Results on five compounds are retold here after US9309199B2, “Inhibitors of catechol O-methyl transferase and their use in the treatment of psychotic disorders” (Merck Sharp & Dohme Corp., priority 2010, dated 2016).

In this assay the target is T1, MB-COMT (Homo sapiens, UniProt P21964).
T1 construct: 6xHis or 10xHis (C)
T1 sequence (P21964 1-271): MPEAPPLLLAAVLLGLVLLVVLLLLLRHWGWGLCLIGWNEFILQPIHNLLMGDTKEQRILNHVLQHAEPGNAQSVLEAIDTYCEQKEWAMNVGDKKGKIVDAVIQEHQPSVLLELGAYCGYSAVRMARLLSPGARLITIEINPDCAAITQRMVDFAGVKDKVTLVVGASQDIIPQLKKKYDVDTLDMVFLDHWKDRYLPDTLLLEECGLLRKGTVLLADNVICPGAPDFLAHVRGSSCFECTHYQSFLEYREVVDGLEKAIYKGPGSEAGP
The experiment in a line: COMT inhibition, esculetin fluorescence or fluorescence polarization assay (MB-COMT). Conditions: purified human COMT Val158 variant, membrane-bound. The class given is biochemical. The text has this:
The activity of the compounds in accordance with the present invention as COMT inhibitors may be readily determined without undue experimentation using a fluorescence or fluorescence polarization (FP) methodology that is well known in the art (Kurkela M et al., Anal Biochem (331) 2004, 198-200 and Graves, T L et al., Anal Biochem (373) 2008, 296-306).
The fluorescence assay was based on methylation of a substrate (6,7-dihydroxycoumarin or ‘esculetin’) by COMT to produce a highly fluorescent product (7-hydroxy-6-methoxycoumarin or scopoletin'). […] A 10 mM compound stock in DMSO was used to prepare 10 point 3-fold dilution series and 1 uL of appropriate dilution was plated into assay wells (black 96 well round bottom polystyrene plates from Costar; catalog #3792). […] The formation of product (scopoletin) was monitored over time by fluorescence (excitation 340 nm, emission 460 nm, no lag, 100 μs integration time, 5 flashes, top read) using a Tecan Safire^2 plate reader.
(In general: Polarisation of emitted light reports the rotation of a fluorescent probe.)
The term IC50 denotes the concentration that gives 50% inhibition. A low value points to greater potency. `Cn1cc(-c2ccc3ccccc3c2)cc(O)c1=O` [Compound #1, 3-hydroxy-1-methyl-5-naphthalen-2-ylpyridin-2(1H)-one] returned a 50% inhibitory concentration (IC50) of 179 nM.

`O=c1[nH]cc(-c2ccc(Cl)c(C(F)(F)F)c2)cc1O` [Compound #2, 5-[4-chloro-3-(trifluoromethyl)-phenyl]-3-hydroxypyridin-2(1H)-one] had a concentration for half-maximal inhibition (IC50) of 31 nM.

The compound `N#Cc1cccc(-c2c[nH]c(=O)c(O)c2)c1` [Compound #8, 3-(5-hydroxy-6-oxo-1,6-dihydropyridin-3-yl)benzonitrile] had an IC50 of 197 nM.

For the compound `Cn1cc(-c2ccc(Cl)cc2Cl)cc(O)c1=O` [Example 1, 5-(2,4-Dichloro-phenyl)-3-hydroxy-1-methyl-1H-pyridin-2-one], the midpoint of inhibition, the IC50, lay at 392 nM.

Consider `Cn1cc(-c2cccc(-c3ccccc3)c2)cc(O)c1=O` [Example 4, 5-Biphenyl-3-yl-3-hydroxy-1-methylpyridin-2(1H)-one], for which it took 118 nM to reach half-maximal inhibition (IC50).
